Source: patent US9539309B2, “Controlled release of growth factors and signaling molecules for promoting angiogenesis” (President and Fellows of Harvard College, priority 2008, dated 2017)

Legend:
[1] = system: cells in small intestines; experiment: in vivo effect of DAPT on the cells in small intestines (H&E, alcian blue, Ki67, HES-1 staining); parameters: species or system mice
From the text: FIG. 6 is a series of photomicrographs showing the effect of DAPT on gastrointestinal tissue. In vivo model was used to test the effect of DAPT delivered from alginate gel system and from intraperitoneal injection on the cells in small intestines. gel: alginate gel. ip: intraperitoneal injection. H&E, alcian blue, Ki67 and HES-1 are the four different staining methods to characterize the crypt cells in small intestines. Ki-67 was used to stain the proliferative cells. Loss of Notch signaling can alter the proliferation rate of crypt cells. HES-1 staining was to examine the expression of a known Notch target gene in crypts. Alcian blue staining was to examine the deposition of glycosaminoglycan molecules. Loss of Notch signaling can result in more deposition of glycosaminoglycan molecules. Expression of HES-1 (hairy and enhancer of split 1), a member of basic helix-loop-helix family of transcription factors and a known Notch target gene in crypts was examined. Loss of Notch signaling can alter the proliferation rate of crypt cells, as shown by Ki-67 staining the proliferative cells. In addition, Notch inhibition has been reported to alter the balance between proliferative crypt cells and goblet cells, resulting in more deposition of glycosaminoglycan molecules, as characterized by alcian blue staining.

[2] = system: Endothelial cells isolated from diabetics; experiment: in vitro sprouting model with endothelial cells isolated from diabetics; type: cell-based
From the text: In addition, there is an optimal VEGF concentration to induce most sprouts.
Endothelial cells isolated from diabetics produce more sprouts in the presence of a combination of both gamma-secretase inhibitors with VEGF. (FIG. 2, *P<0.05) than with either of them alone, which implies the need of a combination of both growth factor and DAPT.

[3] = DAPT delivered via intraperitoneal injection

region of effects ([1]; DAPT delivered from the gel system) | glycosaminoglycans, alcian blue staining [1, 3] | intestinal structure, H&E staining [1, 3] | Compound | cell differentiation at distant sites (small intestines) ([1]; DAPT delivered from alginate gel system, compared with intraperitoneal injection, FIG. 6) | Notch target gene expression, HES-1 staining [1, 3] | proliferating cells, Ki67 staining [1, 3] | effects at distant organs (e.g., small intestines) ([1]; DAPT delivered via intraperitoneal injection, goes into the systemic circulation) | concentration of VEGF that gives the most sprouts if used alone ([2]; VEGF alone, FIG. 3) [ng/mL] | response to VEGF, capability of forming sprouts ([2]; endothelial cells from diabetics compared to age-matched non-diabetics, FIG. 1, P<0.05)
only has effects in the local region | presence of extra glycosaminoglycans | disrupts normal intestinal structure | C[C@H](NC(=O)Cc1cc(F)cc(F)c1)C(=O)N[C@H](C(=O)OC(C)(C)C)c1ccccc1 [DAPT, N—[N-(3,5-Difluorophenacetyl-L-alanyl)]-S-phenylglycine t-butyl ester] | does not alter cell differentiation at distant sites as much | downregulation of Notch target gene expression | loss of proliferating cells | led to adverse effects at distant organs |  | 
 |  |  | VEGF |  |  |  |  | 50 | reduced response
